According to patent US9801908B2, “Treatment for chitin-containing microorganisms” (BENCHMARK ANIMAL HEALTH LIMITED, priority 2013, dated 2017):
Where two headings read alike, the source gives them in different places.

Legend:
[1] = system: Saprolegnia zoosporangia
[2] = system: Saprolegnia spores (S. diclina VIO 2739, S. parasitica VIO 2741, aquarium water); details: BA 1-4 g/L, 4 hours/day, 14 days
Experimental: The ability of BA to protect dead eggs from becoming infected with Saprolegnia spores was investigated. The rationale is that dead eggs may be the first to get infected under natural conditions and act as a source of infection for live eggs. Combined treatment of BA and PA was also tested.
Five egg groups were used, each group divided equally into 3 smaller sub-groups. 25 live eggs plus 5 dead ones were placed in each of the sub-groups (90 eggs per group). […] In the groups, eggs were supplied with continuous slow water flow of 1 L/min. The aquarium water at the facilities of the Norwegian Veterinary Institute/Norwegian School of Veterinary Science contains Saprolegnia zoospores and was used as source of infection. […] Treatment with BA was carried out as follows. The water flow was stopped and each group, except the non-treated control group, was treated with BA at concentrations of 1, 2, 3, and 4 g/L. The treatment period was 4 hours/day after which water flow was resumed. Dead eggs were inspected daily over 14 days for their colonization with Saprolegnia spores and the presence of growing hypha. Number of dead eggs per group and hatching rates were recorded.

[3] = system: Saprolegnia spores; details: BA 0.5 g/L continuous, yolk sac fry, natural outbreak
From the text: The safety of continuous exposure of salmon fry to a low concentration of BA (0.5 g/L) was also investigated to understand what extent BA will protect Atlantic salmon fry from becoming infected by Saprolegnia spores during a natural outbreak of saprolegniosis in the aquarium.

[4] = system: Saprolegnia spores and zoosporangia
Experimental: At indicated time points BA was replaced with SAW. The ability of treated spores to germinate and colonize sesame seeds was recorded 24 h following the treatment removal. Treated zoosporangia were also examined for their ability to release spore. Spores and zoosporangia in SAW were used as a non-treated control. Results were confirmed with fluorescent microscopy using SYTO 9 dye (Invitrogen®) 5 mM solution in DMSO.

[5] = system: Atlantic salmon eyed eggs; details: in vivo
[6] = system: Saprolegnia sp.; details: 4 h once a day
Experimental: The experimental design was as described in experiment 1 with the same number of eggs per replicate (N=27±2) and the number of infected eggs introduced per replicate (3 per 27 eggs). The difference was that the eggs were exposed to higher BA concentrations (1, 2, 3, 4 g/L) for 4 h once a day over the course of the experiment which lasted for 14 days in total. After 4 h of treatment the flow of aquarium water was resumed. The same treatment was applied 24 h later and every day up to 14 days. The time between treatments was the same throughout the experiment. The number of dead eggs, presence or absence of infection and hatching rates were recorded over the duration of the experiment.
Infected dead eggs that were used as source of infection in the BA treated groups and the non-treated control were examined microscopically to observe the effect of BA treatment on the growing mycelia.

[7] = system: Saprolegnia spores; assay: Germination and colonization of Saprolegnia spores on sesame seeds; type: cell-based, Saprolegnia parasitica; parameters: key to grade of germination and colonization of Saprolegnia spores on sesame seeds: Grade 0: no germination no growing mycelia on the sesame seeds; Grade 1: germinating spores no growing mycelia on the sesame seeds; Grade 2: germinating spores very few growing mycelia on the sesame seeds; Grade 3: germinating spores profuse growing mycelia on the sesame seeds; details: for grade of germination and colonization of Saprolegnia spores on sesame seeds: 48 hours incubation
Experimental: BA was diluted to desired concentration in Sterilized Aquarium Water (SAW). […] Saprolegnia zoospores were produced according to the method described previously by Stueland et al. […] Sterilized aquarium water (SAW) was used as a non-treated control and bronopol (Pyceze Vet.® 500 g bronopol/L) was used as a positive control. Each BA concentration and controls were tested in triplicates and incubated at 20° C. 24 hours later, plates were examined microscopically.

[8] = system: Saprolegnia hyphae/mycelium
Experimental: The plates were observed microscopically to confirm the attachment of the spores to the sesame seeds and the presence of the early growing mycelia. BA was added at 12 h post infection of the sesame seeds at the same concentrations mentioned above to all tested plates except controls. Plates were incubated further at 20° C. SAW was used as non-treated control and bronopol as positive control. Plates were inspected microscopically after 24 h for advanced mycelial growth.

[9] = treated 96 h in BA, then 24 h in SAW

SMILES: OB(O)O [boric acid]
- production and release of zoospores from young zoosporangia ([1]; 1 g/L BA, 12 and 24 h): interferes with the production and subsequent release of zoospores
- sign observed in zoosporangia after treatment ([1]; 1 g/L BA, 12 and 24 h): Vacuolation of the entire of zoosporangia
- spore production and release from zoosporangia (FIG. 2 b2) ([1]; 24 hours exposure to boric acid): absence of spore production and release
- attachment between dead and live eggs [2]: no attachment
- hyphal growth on dead eggs [2]: No hyphal growth
- fry mortality rates compared to non-treated control [3]: Significant reduction
- spore release of zoosporangia 24 h after exposure terminated ([4]; BA 1 g/L for 12 h): showed spore release
- spore release of zoosporangia 24 h after exposure terminated ([4]; BA 1 g/L for 24 h): showed spore release
- spore release of zoosporangia after exposure terminated ([4]; BA 1 g/L for 72 h): no spore release
- spore release of zoosporangia after exposure terminated ([4]; BA 1 g/L for 96 h): no spore release
- colonization of seeds (FIG. 3c-1) ([4]; treated 24 h with BA, then 24 h in SAW): Thin hyphae can be seen projecting out from seeds
- appearance of zoosporangium (FIG. 3d-2) [4, 9]: condensed staining and a thin wall
- colonization of seeds (FIG. 3d) [4, 9]: no colonization on seeds
- impact on hatchability and viability of eggs or fry [5]: no negative impact
- hyphal attachment between infected dead and live eggs ([6]; BA 1, 2, 3 or 4 g/L, 14 days): No hyphal attachment
- mycelium on dead eggs used as source of infection ([6]; all treated groups, BA 1-4 g/L): scanty attachment of mycelium
- grade of germination and colonization of Saprolegnia spores on sesame seeds ([7]; "boric acid g/L" (concentration not given)): Grade 0
- germination of inoculated Saprolegnia spores ([7]; BA 1 g/L and above): did not germinate
- germination and colonization of sesame seeds by Saprolegnia spores ([7]; BA below 0.2 g/L): germinated and colonized sesame seeds
- growth rate compared to the non-treated control ([7]; BA below 0.2 g/L): slow
- grade of germination and colonization of Saprolegnia spores on sesame seeds ([7]; boric acid 0.2-0.4 g/L): Grade 2
- grade of germination and colonization of Saprolegnia spores on sesame seeds ([7]; boric acid 0.5-0.9 g/L): Grade 1
- grade of germination and colonization of Saprolegnia spores on sesame seeds ([7]; boric acid <0.2 g/L): Grade 3
- hyphael growth grade ([8]; BA 0.5 g/L and below): grade 1
- mycelia growth ([8]; BA above 0.5 g/L): no further growth

SMILES: O=[N+]([O-])C(Br)(CO)CO [bronopol, reference compound]
- mortality of eggs ([5]; Atlantic salmon, 2 h): 100%
- grade of germination and colonization of Saprolegnia spores on sesame seeds ([7]; positive control (Pyceze Vet. 500 g bronopol/L)): Grade 0
